pEC50, pIC50: −log10 of the molar value. Values after ≈ are worked out from the molar mass of the structure shown.
Key:
Staphylococcus aureus [1] = experiment: Antimicrobial activity against Staphylococcus aureus USA300 deficient in ClpP incubated overnight under aerobic condition by microbroth dilution method; assay type: functional
Staphylococcus aureus [2] = experiment: Antimicrobial activity against Staphylococcus aureus NRS70 incubated overnight under aerobic condition by microbroth dilution method; assay type: functional
Staphylococcus aureus [3] = experiment: Antimicrobial activity against Staphylococcus aureus ATCC 29213 incubated overnight under aerobic condition by microbroth dilution method; assay type: functional
Vero = experiment: Cytotoxicity in African green monkey Vero cells assessed as reduction in cell viability incubated for 72 hrs by cell-titer-Glo luminescent cell viability assay; assay type: cell-based; settings: Chlorocebus sabaeus
Staphylococcus aureus [4] = experiment: Antimicrobial activity against Staphylococcus aureus USA300 incubated overnight under aerobic condition by microbroth dilution method; assay type: functional
Streptococcus pyogenes = experiment: Antimicrobial activity against Streptococcus pyogenes ATCC 700294 incubated overnight under aerobic condition by microbroth dilution method; assay type: functional
Streptococcus pneumoniae = experiment: Antimicrobial activity against Streptococcus pneumoniae R6 incubated overnight under aerobic condition by microbroth dilution method; assay type: functional
[5] = target: T1, ATP-dependent Clp protease proteolytic subunit (Staphylococcus aureus (strain NCTC 8325), UniProt Q2G036); experiment: Activation of Staphylococcus aureus ClpP using BODIPY-FL-casein as substrate incubated for 30 mins by Enz-Check protease assay
T1 sequence (Q2G036 whole entry): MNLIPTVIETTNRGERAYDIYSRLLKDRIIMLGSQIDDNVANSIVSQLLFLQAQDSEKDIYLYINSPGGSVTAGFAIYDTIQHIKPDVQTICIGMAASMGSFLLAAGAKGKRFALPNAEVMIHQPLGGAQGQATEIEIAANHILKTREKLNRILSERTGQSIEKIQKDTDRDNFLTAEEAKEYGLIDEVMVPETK

Row | Structure (SMILES) | MIC (Staphylococcus aureus [1]) [µM] | MIC (Staphylococcus aureus [2]) [µM] | MIC (Staphylococcus aureus [3]) [µM] | MIC (Staphylococcus aureus [4]) [µM] | MIC (Streptococcus pyogenes) [µM] | also measured
1 | C[C@H]1C[C@H]2C(=O)OC[C@H](NC(=O)[C@H](Cc3ccccc3)NC(=O)Nc3ccc(OC(F)(F)F)cc3)C(=O)N3CCC[C@H]3C(=O)N3CCCC[C@H]3C(=O)N[C@@H](C)C(=O)N2C1 |  | 0.4 (≈ 0.331 µg/mL) | 0.4 (≈ 0.331 µg/mL) |  |  | 
2 | CCc1ccc(NC(=O)N[C@@H](Cc2cc(F)cc(F)c2)C(=O)N[C@@H]2C(=O)N3CCC[C@H]3C(=O)N(C)[C@@H]([C@H](C)O)C(=O)N[C@@H](C)C(=O)N3C[C@H](C)C[C@H]3C(=O)O[C@H]2C)cc1 | 100 (≈ 82.6 µg/mL) |  |  |  |  | pIC50 (Vero): 4.60
3 | C[C@@H]1NC(=O)[C@@H]2CCCCN2C(=O)[C@@H]2CCCN2C(=O)[C@@H](NC(=O)[C@H](Cc2cc(F)cc(F)c2)NC(=O)Nc2ccc3c(c2)OCO3)[C@H](C)OC(=O)[C@@H]2CCCN2C1=O |  | 3.1 (≈ 2.55 µg/mL) | 3.1 (≈ 2.55 µg/mL) | 3.1 (≈ 2.55 µg/mL) | < 0.1 | 
4 | Cc1ccc(NC(=O)N[C@@H](Cc2cc(F)cc(F)c2)C(=O)N[C@@H]2C(=O)N3CCC[C@H]3C(=O)N3CCCC[C@H]3C(=O)N[C@@H](C)C(=O)N3C[C@H](C)C[C@H]3C(=O)O[C@H]2C)cc1 | 100 (≈ 80.8 µg/mL) |  | 0.05 (≈ 0.0404 µg/mL) | 0.05 (≈ 0.0404 µg/mL) | 0.2 (≈ 0.162 µg/mL) | pIC50 (Vero): 4.40; MIC (Streptococcus pneumoniae): 0.05 µM (≈ 0.0404 µg/mL)
5 | Cc1ccc(NC(=O)N[C@@H](Cc2cc(F)cc(F)c2)C(=O)N[C@@H]2C(=O)N3C[C@H](O)C[C@H]3C(=O)N(C)[C@@H](C)C(=O)N[C@@H](C)C(=O)N3C[C@@H](C)C[C@H]3C(=O)O[C@H]2C)cc1 | > 200 |  |  |  |  | pEC50 [5]: 6.43; pIC50 (Vero): < 4.00
6 | Cc1ccc(NC(=O)N[C@@H](Cc2cc(F)cc(F)c2)C(=O)N[C@@H]2C(=O)N3CCC[C@H]3C(=O)N3CCOC[C@H]3C(=O)N[C@@H](C)C(=O)N3C[C@H](C)C[C@H]3C(=O)O[C@H]2C)cc1 | > 200 |  | 0.003 (≈ 0.00243 µg/mL) |  | 0.02 (≈ 0.0162 µg/mL) | MIC (Streptococcus pneumoniae): 0.002 µM (≈ 0.00162 µg/mL)

Continued, in another order:

Row | MIC (Staphylococcus aureus [1]) [µM] | MIC (Staphylococcus aureus [2]) [µM] | MIC (Staphylococcus aureus [3]) [µM] | MIC (Staphylococcus aureus [4]) [µM] | MIC (Streptococcus pyogenes) [µM] | Structure (SMILES) | also measured
7 | > 200 |  |  |  |  | Cc1ccc(NC(=O)N[C@@H](Cc2cc(F)cc(F)c2)C(=O)N[C@H]2COC(=O)[C@@H]3C[C@H](F)CN3C(=O)[C@H](C)NC(=O)[C@@H]3CCCCN3C(=O)[C@@H]3CCCN3C2=O)cc1 | 
8 |  | 3.1 (≈ 1 µg/mL) |  | 3.1 (≈ 1 µg/mL) |  | O=C(N[C@H](CO)[C@H](O)c1ccc([N+](=O)[O-])cc1)C(Cl)Cl [CHLORAMPHENICOL] | 
9 | 100 (≈ 83.8 µg/mL) | 0.2 (≈ 0.168 µg/mL) | 0.2 (≈ 0.168 µg/mL) | 0.2 (≈ 0.168 µg/mL) |  | C[C@@H]1NC(=O)[C@H](C)N(C)C(=O)[C@@H]2CCCN2C(=O)[C@@H](NC(=O)[C@H](Cc2cc(F)cc(F)c2)NC(=O)Nc2ccc(OC(F)(F)F)cc2)[C@H](C)OC(=O)[C@@H]2CCCN2C1=O | 
10 |  |  | 0.8 (≈ 0.67 µg/mL) | 0.8 (≈ 0.67 µg/mL) |  | C[C@H]1C[C@H]2C(=O)O[C@@H](C)[C@H](NC(=O)[C@H](Cc3cc(F)cc(F)c3)NC(=O)Nc3ccc4c(c3)OCO4)C(=O)N3CCC[C@H]3C(=O)N3CCCC[C@H]3C(=O)N[C@@H](C)C(=O)N2C1 | 
11 |  |  | 0.05 (≈ 0.0439 µg/mL) | 0.05 (≈ 0.0439 µg/mL) |  | C[C@@H]1C[C@H]2C(=O)O[C@@H](C)[C@H](NC(=O)[C@H](Cc3cc(F)cc(F)c3)NC(=O)Nc3ccc(OC(F)(F)F)cc3)C(=O)N3CCC[C@H]3C(=O)N3CCCC[C@H]3C(=O)N[C@@H](C)C(=O)N2C1 | 
12 | 100 (≈ 86.8 µg/mL) | 0.1 (≈ 0.0868 µg/mL) | 0.1 (≈ 0.0868 µg/mL) |  |  | C[C@H]1C[C@H]2C(=O)O[C@@H](C)[C@H](NC(=O)[C@H](Cc3cc(F)cc(F)c3)NC(=O)Nc3ccc(OC(F)(F)F)cc3)C(=O)N3C[C@H](O)C[C@H]3C(=O)N(C)[C@@H](C)C(=O)N[C@@H](C)C(=O)N2C1 | 
13 |  | 0.6 (≈ 0.463 µg/mL) | 0.6 (≈ 0.463 µg/mL) |  |  | CCc1cccc(NC(=O)N[C@@H](Cc2ccccc2)C(=O)N[C@H]2COC(=O)[C@@H]3C[C@@H](C)CN3C(=O)[C@H](C)NC(=O)[C@@H]3CCCCN3C(=O)[C@@H]3CCCN3C2=O)c1 | 
14 |  |  |  |  | 1.5 (≈ 1.29 µg/mL) | C[C@H]1C[C@H]2C(=O)O[C@@H](C)[C@H](NC(=O)[C@H](Cc3cc(F)cc(F)c3)NC(=O)Nc3ccc(C(F)(F)F)cc3)C(=O)N3CCC[C@H]3C(=O)N3CCCC[C@H]3C(=O)N[C@@H](C)C(=O)N2C1 | 
15 | 100 (≈ 80.8 µg/mL) |  |  |  | 0.4 (≈ 0.323 µg/mL) | Cc1ccc(NC(=O)N[C@@H](Cc2cc(F)cc(F)c2)C(=O)N[C@@H]2C(=O)N3CCC[C@H]3C(=O)N3CCCC[C@H]3C(=O)N[C@@H](C)C(=O)N3C[C@@H](C)C[C@H]3C(=O)O[C@H]2C)cc1 | 
16 | 100 (≈ 80.8 µg/mL) |  |  |  |  | Cc1ccc(NC(=O)N[C@@H](Cc2cc(F)cc(F)c2)C(=O)N[C@H]2COC(=O)[C@@H]3CC(C)(C)CN3C(=O)[C@H](C)NC(=O)[C@@H]3CCCCN3C(=O)[C@@H]3CCCN3C2=O)cc1 | 

Reference: ChEMBL document CHEMBL4476873, “Substituted urea depsipeptide analogs as activators of the clpp endopeptidase” (2018)
